According to patent US10654838B2, “Aminopyridine compounds useful as inhibitors of protein prenylation” (INSTITUT NATIONAL DE LA SANTE ET DE LA RECHERCHE MEDICALE …, priority 2014, dated 2020):

Legend:
FPPS [1] = molecular target: T1, FPPS (Homo sapiens, UniProt P14324); assay: FPPS activity assay; assay type: biochemical; design: endogenous in cells; host or cells: HGPS MSCs (cell lysate); details: concentration inducing 50% of the maximum inhibiting effect of the compound
T1 sequence (P14324 1-419): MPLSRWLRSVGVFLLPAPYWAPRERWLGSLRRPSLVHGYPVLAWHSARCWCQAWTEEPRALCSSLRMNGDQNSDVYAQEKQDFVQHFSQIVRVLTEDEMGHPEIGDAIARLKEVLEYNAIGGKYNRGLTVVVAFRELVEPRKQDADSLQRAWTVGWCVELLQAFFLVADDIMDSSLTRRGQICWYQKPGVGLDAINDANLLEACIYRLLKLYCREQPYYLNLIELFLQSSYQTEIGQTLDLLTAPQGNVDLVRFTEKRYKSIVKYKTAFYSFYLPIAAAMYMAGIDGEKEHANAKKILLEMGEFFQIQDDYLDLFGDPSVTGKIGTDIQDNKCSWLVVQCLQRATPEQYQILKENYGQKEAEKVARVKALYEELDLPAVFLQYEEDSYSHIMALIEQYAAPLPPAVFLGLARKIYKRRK
Experimental: Cell pellet of HGPS MSCs were resuspended in 25 mM Tris-HCl pH 7.4, 1 mM DTT, 1 mM MgCl2, 1 EDTA, 1 mM PMSF and centrifuged at 10,000×g for 10 min at 4° C. Protein content was determined using Lowry's method. Aliquots of cell lysate containing 100 μg of total proteins were incubated with tested substances at 37° C. for 30 min.
FPPS assay was carried out with some modifications of the procedure of Krisans et al. (Krisans et al., 1994, The Journal of biological chemistry VOL. 269: 14165-14169) and described by Gupta et al. (Gupta et al., 1999, Eur J Med Chem, VOL. 43: 2751-2767). Briefly, FPPS was assayed in 150 μL containing 25 mmol/L Hepes, pH=7, 2 mmol/L MgCl2, 1 mmol/L dithiothreitol, 5 mmol/L KF, 1% A noctyl-β-glucopyranoside, 3.3 μmol/L [4-14C] IPP (18 Ci/mmol), 3 μmol/L unlabeled IPP and 20 μmol/L geranyl diphosphate. Reactions were started by adding 40 μL of treated or untreated cell lysate and incubated for 45 min at 37° C. Reactions were stopped by the addition of 150 μL 2.5 mol/L HCl in 80% ethanol containing 100 μg/mL farnesol as a carrier. The samples were hydrolyzed for 30 min at 37° C. to convert the FPP to farnesol and neutralized by the addition of 150 μL of 10% NaOH. The reaction product (farnesol) was extracted into 1 mL of N-hexane and an aliquot (200 μL) of the organic phase was used for radioactivity counting. Parallel samples were assayed to evaluate the total and the nonspecific radioactivity. In all experiments, enzyme assays were carried out in triplicate.

FPPS [2] = molecular target: T1, FPPS; assay: Surface plasmon resonance on immobilized FPPS; assay type: binding
Experimental: Surface plasmon resonance (SPR) was measured using a BIAcore 3000 instrument at 25° C. FPPS (2800 RU) was immobilized on flow cells of a CM5-chip. The running buffer was HBSEP pH 7.4 (20 mM Hepes, 150 mM NaCl, and 0.005% P20). Regeneration was performed with 10 mM glycine, pH 3.0. […] Data were evaluated using Scrubber2 (Biologic software) and BIAeval software (BIAcore).

- IC50 (FPPS [1]): 1.55 µM
- direct interaction with FPPS (SPR), in words (FPPS [2]): confirmed the direct interactions
- Kd (FPPS [2]; SPR, BIAcore 3000, 25° C., read-out: Kd (M), equilibrium dissociation constant): 2.4e-05 M
SMILES: N#CC(c1ccccn1)c1ccnc(N2CCN(Cc3ccccc3F)CC2)n1 (stereo not drawn) [Mono-AP1, {2-[4-(2-fluoro-benzyl)-piperazin-1-yl]-pyrimidin-4-yl}-pyridin-2-yl-acetonitrile]
